The values that follow come from US8361998B2, “Compounds and their use as IKACh blockers” (AstraZeneca AB, priority 2010, dated 2013).

The target of the assay is T1, human cardiac ion channel proteins hKir3.1/Kir3.4 (Homo sapiens, UniProt P48544+P48549).
T1 construct: expressed in transfected cells
T1 sequence (P48549 1-501): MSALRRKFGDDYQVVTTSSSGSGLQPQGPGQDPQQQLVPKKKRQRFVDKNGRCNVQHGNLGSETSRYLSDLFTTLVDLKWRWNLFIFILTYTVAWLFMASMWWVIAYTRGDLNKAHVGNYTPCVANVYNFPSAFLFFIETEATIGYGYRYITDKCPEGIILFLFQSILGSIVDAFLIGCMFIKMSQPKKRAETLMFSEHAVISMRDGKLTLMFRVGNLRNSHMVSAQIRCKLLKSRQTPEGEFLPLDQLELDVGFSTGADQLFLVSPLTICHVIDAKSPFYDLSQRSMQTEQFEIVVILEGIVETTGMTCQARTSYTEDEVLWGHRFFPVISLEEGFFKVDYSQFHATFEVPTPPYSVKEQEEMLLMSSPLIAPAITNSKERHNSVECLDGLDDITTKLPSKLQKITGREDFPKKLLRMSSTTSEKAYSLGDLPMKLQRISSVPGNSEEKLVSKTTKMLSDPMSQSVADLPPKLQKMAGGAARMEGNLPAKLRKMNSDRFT
T1 sequence (P48544 1-419): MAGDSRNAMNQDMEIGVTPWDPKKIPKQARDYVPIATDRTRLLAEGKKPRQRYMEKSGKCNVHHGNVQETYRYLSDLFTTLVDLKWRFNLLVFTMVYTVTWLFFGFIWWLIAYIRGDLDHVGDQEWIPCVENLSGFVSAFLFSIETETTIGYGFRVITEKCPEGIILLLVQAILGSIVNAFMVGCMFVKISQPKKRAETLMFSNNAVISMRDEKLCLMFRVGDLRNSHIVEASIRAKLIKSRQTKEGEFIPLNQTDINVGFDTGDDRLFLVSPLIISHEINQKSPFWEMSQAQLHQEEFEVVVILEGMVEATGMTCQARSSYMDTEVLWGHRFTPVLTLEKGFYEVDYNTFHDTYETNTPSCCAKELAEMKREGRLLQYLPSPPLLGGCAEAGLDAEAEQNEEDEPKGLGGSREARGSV
Description: Atomic Absorption Screening (AAS) Rb efflux assay of hKir3.1/Kir3.4 block, carbachol/high K+ stimulated, 10-pt or 7-pt CR. The class given is cell-based. Particulars: AAS Rb efflux, CHO-K1 cells expressing hKir3.1/Kir3.4. The method, boiled down: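 Mean IC50s derive from >4 replicates over 0.003–67 μmol/L (10-point) or >3 replicates over 0.037–27 μmol/L (7-point), both threefold steps. Rb-loaded (3 h, 37° C) CHO-K1 cells stably expressing hKir3.1/Kir3.4 saw compound for 5 min at RT before 10-min channel opening by carbachol 10 μM/KCl 20 mM final. Released Rb was quantified by atomic absorption.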

The mark [1] stands for this setting: 7-pt CR (0.037 to 27 μmol/L), mean of >3 replicates, read-out: IKACh IC50 7-pt CR, AAS.
Where [2] appears, read: 10-pt CR (0.003 to 67 μmol/L), mean of >4 replicates, read-out: IKACh IC50 10-pt CR, AAS.

Where two headings read alike, the source gives them in different places.

Usually IC50 stands for the concentration needed to halve the response being measured. Regarding `CC(C)[C@@H](CN1CCCCC1)N(C)C(=O)c1ccc(Cl)cc1` [Example 16.34, 4-Chloro-N-methyl-N-[(1S)-2-methyl-1-(piperidin-1-ylmethyl)propyl]benzamide], under setting [1], the IC50 stood at 4.3 µM.
Same read-out and setting: to `CC(C)[C@@H](CN1CCCCC1)N(C)C(=O)c1cccc(Br)c1` [Example 16.35, (S)-3-Bromo-N-methyl-N-(3-methyl-1-(piperidin-1-yl)butan-2-yl)benzamide] belongs 12 µM; to `CC(C)[C@@H](CN1CCCCC1)N(C)C(=O)c1ccc(Br)c(F)c1` [Example 16.36, (S)-4-Bromo-3-fluoro-N-methyl-N-(3-methyl-1-(piperidin-1-yl)butan-2-yl)benzamide], 11 µM.
As for `CC(C)[C@@H](CN1CCCCC1)N(C)C(=O)c1cccc(Cl)c1` [Example 16.37, (S)-3-Chloro-N-methyl-N-(3-methyl-1-(piperidin-1-yl)butan-2-yl)benzamide], the concentration for half-maximal inhibition (IC50) was determined as 14 µM under setting [1] and 15 µM under setting [2].
Turning to `Cc1c(F)cccc1C(=O)N(C)[C@H](CN1CCCCC1)C(C)C` [Example 16.38, (S)-3-Fluoro-N,2-dimethyl-N-(3-methyl-1-(piperidin-1-yl)butan-2-yl)benzamide], the IC50 under setting [1] worked out at 17 µM.
For the compound `CC(C)[C@@H](CN1CC[C@H](O)C1)N(C)C(=O)c1cccc(Cl)c1F` [Example 16.39, 3-Chloro-2-fluoro-N-[(1S)-1-{[(3S)-3-hydroxypyrrolidin-1-yl]methyl}-2-methylpropyl]-N-methylbenzamide], the IC50 under setting [1] is 3.9 µM.
For the compound `Cc1cc(C(=O)N(C)[C@H](CN2CC[C@H](O)C2)C(C)C)ccc1F` [Example 16.40, 4-Fluoro-N-[(1S)-1-{[(3S)-3-hydroxypyrrolidin-1-yl]methyl}-2-methylpropyl]-N,3-dimethylbenzamide], the IC50 under setting [1] came out at 3.2 µM.
Take `CC(C)[C@@H](CN1CC[C@H](O)C1)N(C)C(=O)c1ccc(OC(F)(F)F)cc1` [Example 16.41, N-[(1S)-1-{[(3S)-3-Hydroxypyrrolidin-1-yl]methyl}-2-methylpropyl]-N-methyl-4-(trifluoromethoxy)benzamide]: the IC50 under setting [1] is 6.8 µM.
For the compound `CC(C)[C@@H](CN1CC[C@H](O)C1)N(C)C(=O)c1cccc(OC(F)(F)F)c1` [Example 16.42, N-[(1S)-1-{[(3S)-3-Hydroxypyrrolidin-1-yl]methyl}-2-methylpropyl]-N-methyl-3-(tri-fluoromethoxy)benzamide], the IC50 under setting [1] came to 3.9 µM.
Regarding `Cc1ccc(C(=O)N(C)[C@H](CN2CC[C@H](O)C2)C(C)C)cc1` [Example 16.43, N-[(1S)-1-{[(3S)-3-Hydroxypyrrolidin-1-yl]methyl}-2-methylpropyl]-N,4-dimethylbenzamide], the IC50 under setting [1] came out at 5.5 µM.
For the compound `CC(C)[C@@H](CN1CC[C@H](O)C1)N(C)C(=O)c1cc(F)cc(C(F)(F)F)c1` [Example 16.44, 3-Fluoro-N-[(1S)-1-{[(3S)-3-hydroxypyrrolidin-1-yl]methyl}-2-methylpropyl]-N-methyl-5-(trifluoromethyl)benzamide], the IC50 under setting [1] was 8.4 µM.
Same read-out and setting: in the case of `Cc1c(F)cccc1C(=O)N(C)[C@H](CN1CC[C@H](O)C1)C(C)C` [Example 16.45, 3-Fluoro-N—((S)-1-((S)-3-hydroxypyrrolidin-1-yl)-3-methylbutan-2-yl)-N,2-dimethylbenzamide] it was 16 µM.
For `CC(C)[C@@H](CN1CC[C@H](O)C1)N(C)C(=O)c1ccc(F)cc1C(F)(F)F` [Example 16.46, 4-Fluoro-N—((S)-1-((S)-3-hydroxypyrrolidin-1-yl)-3-methylbutan-2-yl)-N-methyl-2-(trifluoromethyl)benzamide], the IC50 under setting [1] is 19 µM.
With `CC(C)[C@@H](CN1CCCC1)N(C)C(=O)c1ccc(Cl)cc1Cl` [Example 16.47, (S)-2,4-Dichloro-N-methyl-N-(3-methyl-1-(pyrrolidin-1-yl)butan-2-yl)benzamide], under setting [1], the IC50 came to 0.56 µM.
On the same count and under the same terms, in the case of `CC(C)[C@@H](CN1CCCC1)N(C)C(=O)c1cccc(Cl)c1` [Example 16.48, (S)-3-Chloro-N-methyl-N-(3-methyl-1-(pyrrolidin-1-yl)butan-2-yl)benzamide] it was 4.2 µM.
Turning to `CC(C)c1ccc(C(=O)N(C)[C@H](CN2CCCC2)C(C)C)cc1` [Example 16.49, (S)-4-Isopropyl-N-methyl-N-(3-methyl-1-(pyrrolidin-1-yl)butan-2-yl)benzamide], the half-inhibitory concentration (IC50) was 7.1 µM under setting [1] and 9.7 µM under setting [2].
On to `Cc1cc(C(=O)N(C)[C@H](CN2CCCC2)C(C)C)ccc1Cl` [Example 16.50, (S)-4-Chloro-N,3-dimethyl-N-(3-methyl-1-(pyrrolidin-1-yl)butan-2-yl)benzamide], for which, under setting [1], the IC50 is 0.42 µM.
Same read-out and setting: in the case of `CC(C)[C@@H](CN1CCCC1)N(C)C(=O)c1ccc(Cl)c(Cl)c1` [Example 16.51, (S)-3,4-Dichloro-N-methyl-N-(3-methyl-1-(pyrrolidin-1-yl)butan-2-yl)benzamide] it was 0.46 µM.
Take `CC(C)[C@@H](CN1CCCC1)N(C)C(=O)c1ccc(Br)c(F)c1` [Example 16.52, (S)-4-Bromo-3-fluoro-N-methyl-N-(3-methyl-1-(pyrrolidin-1-yl)butan-2-yl)benzamide]: the IC50 under setting [1] was found to be 3.2 µM.
For `CC(C)[C@@H](CN1CCCC1)N(C)C(=O)c1ccc(Cl)cc1F` [Example 16.53, (S)-4-Chloro-2-fluoro-N-methyl-N-(3-methyl-1-(pyrrolidin-1-yl)butan-2-yl)benzamide], the IC50 under setting [1] was 0.9 µM.
Turning to `CC(C)[C@@H](CN1CCCC1)N(C)C(=O)c1ccccc1OC(F)F` [Example 16.54, (S)-2-(Difluoromethoxy)-N-methyl-N-(3-methyl-1-(pyrrolidin-1-yl)butan-2-yl)benzamide], the IC50 stood at 6 µM under setting [1] and 9.1 µM under setting [2].
`CC(C)[C@H](CN1CCCC1)N(C)C(=O)c1ccc(Cl)c(Cl)c1` [Example 16.56, (R)-3,4-Dichloro-N-methyl-N-(3-methyl-1-(pyrrolidin-1-yl)butan-2-yl)benzamide]: the IC50 under setting [1] was 3.6 µM.
For the compound `CC(C)[C@H](CN1CCCC1)N(C)C(=O)c1ccc(Br)cc1` [Example 16.57, (R)-4-Bromo-N-methyl-N-(3-methyl-1-(pyrrolidin-1-yl)butan-2-yl)benzamide], the IC50 reads like this: under setting [1], 11 µM; under setting [2], 8.8 µM.
For `CC(C)[C@H](CN1CCCC1)N(C)C(=O)c1ccc(Cl)cc1Cl` [Example 16.58, (R)-2,4-Dichloro-N-methyl-N-(3-methyl-1-(pyrrolidin-1-yl)butan-2-yl)benzamide], the IC50 under setting [1] was determined as 5.8 µM.
As for `CC(C)[C@H](CN1CCCC1)N(C)C(=O)c1ccc(Cl)cc1F` [Example 16.59, (R)-4-Chloro-2-fluoro-N-methyl-N-(3-methyl-1-(pyrrolidin-1-yl)butan-2-yl)benzamide], the IC50 under setting [1] turned out to be 18 µM.
Consider `CC(C)[C@H](CN1CCCC1)N(C)C(=O)c1ccc(Br)c(F)c1` [Example 16.60, (R)-4-Bromo-3-fluoro-N-methyl-N-(3-methyl-1-(pyrrolidin-1-yl)butan-2-yl)benzamide], for which, under setting [1], the IC50 worked out at 16 µM.
Turning to `CC[C@@H](CN1CCCC1)N(C)C(=O)c1ccc(Br)cc1` [Example 17.1, (S)-4-Bromo-N-methyl-N-(1-(pyrrolidin-1-yl)butan-2-yl)benzamide], under setting [2], the IC50 was determined as 12 µM.
Same read-out and setting: to `CC[C@@H](CN1CCCC1)N(C)C(=O)c1ccc(Cl)c(Cl)c1` [Example 17.2, (S)-3,4-Dichloro-N-methyl-N-(1-(pyrrolidin-1-yl)butan-2-yl)benzamide] belongs 1.4 µM.
